2 compounds from US20230183249A1, “NEW TRIAZINOINDOLE COMPOUNDS” (JANSSEN PHARMACEUTICA NV, priority 2020, published 2023) can be followed below.

One series deals with TNF. The series is described as follows: PBMC assay, TNF cytokine levels after LPS stimulation. In kind it is cell-based. Conditions: human PBMCs, 100 ng/ml LPS for 6 hrs, TNF in supernatant via MSD. On the procedure: (§1) Peripheral venous blood was collected from healthy individuals and human peripheral blood mononuclear cells (PBMCs) were isolated from blood by Ficoll-Histopaque (Sigma-Aldrich, A0561) density gradient centrifugation. After isolation, PBMCs were stored in liquid nitrogen for later use. Upon thawing, PBMC cell viability was determined in growth medium (RPMI media supplemented with 10% fetal bovine serum, 1% Pen-Strep and 1% L-glutamine). Compounds were spotted in a 1:3 serial dilution in DMSO and diluted to the final concentration in 30 μl medium in 96 well plates (Falcon, 353072). PBMCs were added at a density of 7.5×10^4 cells per well and incubated for 30 min in a 5% C02 incubator at 37° C. LPS stimulation was performed by addition of 100 ng/ml LPS (final concentration, Invivogen, tlrl-smlps) for 6 hrs followed by collection of cellular supernatant and the analysis of IL-1β (μM) and TNF cytokines levels (μM) via MSD technology according to manufacturers' guidelines (MSD, K151A0H).
The IC50 values (for IL-1β) and EC50 values (TNF) were obtained on compounds of the invention/examples, and are depicted in the following table: […]

A further series deals with T1, NLRP3 (Homo sapiens, UniProt Q96P20).
T1 construct: human peripheral blood mononuclear cells (PBMCs) were isolated from blood; endogenous in cells; host or cells: primary human PBMCs from healthy donors
T1 sequence (Q96P20 whole entry): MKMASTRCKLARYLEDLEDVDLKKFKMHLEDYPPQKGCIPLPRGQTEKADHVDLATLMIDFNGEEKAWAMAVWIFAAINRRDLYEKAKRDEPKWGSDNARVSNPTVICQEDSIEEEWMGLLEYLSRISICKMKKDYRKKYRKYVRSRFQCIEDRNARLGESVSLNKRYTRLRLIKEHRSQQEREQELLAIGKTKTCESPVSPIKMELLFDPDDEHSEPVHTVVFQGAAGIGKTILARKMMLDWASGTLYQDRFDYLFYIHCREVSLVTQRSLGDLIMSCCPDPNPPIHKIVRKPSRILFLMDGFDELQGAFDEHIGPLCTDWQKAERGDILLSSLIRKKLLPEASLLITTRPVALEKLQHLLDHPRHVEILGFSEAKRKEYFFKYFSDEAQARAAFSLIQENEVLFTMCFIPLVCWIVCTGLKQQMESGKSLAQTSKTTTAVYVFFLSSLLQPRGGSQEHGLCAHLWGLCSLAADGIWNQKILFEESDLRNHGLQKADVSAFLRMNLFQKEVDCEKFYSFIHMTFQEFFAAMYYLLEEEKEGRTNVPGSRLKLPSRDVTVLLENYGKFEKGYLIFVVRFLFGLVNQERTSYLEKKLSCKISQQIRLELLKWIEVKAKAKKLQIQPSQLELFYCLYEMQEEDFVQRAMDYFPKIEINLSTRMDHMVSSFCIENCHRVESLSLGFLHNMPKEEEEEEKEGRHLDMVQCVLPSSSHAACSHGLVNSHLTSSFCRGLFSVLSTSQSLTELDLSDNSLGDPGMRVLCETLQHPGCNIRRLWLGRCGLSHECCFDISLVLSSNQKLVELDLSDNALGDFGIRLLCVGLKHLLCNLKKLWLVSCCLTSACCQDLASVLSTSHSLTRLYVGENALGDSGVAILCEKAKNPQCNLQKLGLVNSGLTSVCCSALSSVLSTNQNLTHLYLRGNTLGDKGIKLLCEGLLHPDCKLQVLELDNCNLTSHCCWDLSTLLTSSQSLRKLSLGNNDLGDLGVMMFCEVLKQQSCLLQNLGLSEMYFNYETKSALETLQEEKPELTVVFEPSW
The series is described as follows: PBMC assay, IL-1β release after LPS stimulation. In kind it is cell-based. The settings on record: human PBMCs, 100 ng/ml LPS for 6 hrs, IL-1β in supernatant via MSD; read-out: IL1β IC50. On the procedure:
The activity of a compound according to the present invention can be assessed by in vitro methods.
as §1, with “Compounds were spotted in a 1:3 serial dilution in DMSO and diluted to the final concentration in 30 μl medium in 96 well plates (Falcon, 353072).” left out

Usually EC50 stands for the concentration that produces a half-maximal response. The term melting point denotes the temperature of the solid-liquid transition. As a reminder, the IC50 is the midpoint of a concentration-inhibition curve. For the compound `CCc1nn(CC(=O)NC2CCOCC2)c(=O)c2cc3cc(F)ccc3n12` [Final Cpd 35], the melting point is 285.66 °C. The compound further returned an EC50 in the series with TNF of more than 10 µM. For the same compound, on NLRP3, the IC50 was more than 10 µM.

Regarding `CCc1nn(CC(=O)Nc2ccn(C(C)C)n2)c(=O)c2cc3ccccc3n12` [Final Cpd 38], the melting point was 243 °C. This compound had an EC50 with TNF of more than 20 µM. In addition, the IC50 at NLRP3 is 7.7 µM.
